Experimental data taken from patent US7371780B2, “Use of calphostin C to treat drug-resistant tumor cells” (priority 2003, dated 2008).
pIC50: −log10 of the molar value.

Assays:
MCF-7 cells [1] = experiment: Flow cytometric sub-G1 DNA content, MCF-7; assay type: cell-based, human; conditions: 10 nM paclitaxel or 2 μM doxorubicin
Protocol: For flow cytometric analysis, cells at about 50% to 60% confluence were released from their flasks by trypsin treatment and washed with PBS. After centrifugation at 1000 rpm for 5 min, cells were then fixed by resuspension in 75% ethanol for 2 hours, collected by centrifugation, and resuspended in PI staining solution (see above) for 1 h. For each sample, approximately 2×10^4 cells were analyzed using a Beckman Coulter Epics® Elite flow cytometer. Fluorescence intensity upon stimulation with an argon-ion laser at 488 nm was measured using the PMT4 channel (625DL filter) and plotted against cell number. The percentage of cells with a sub-G1 DNA content was determined by the flow cytometer, adjusting the gates such that only cells with a fluorescence lower than the peak for untreated cells in G1 are counted (see FIG. 4).

MCF-7TAX cells [2] = experiment: Drug uptake, MCF-7TAX; assay type: cell-based, human; conditions: 2 μM doxorubicin or [3H]-paclitaxel
Protocol: (§1) FIG. 5 illustrates the effect of calphostin C (Cal-C) on drug uptake in MCF-7 (square symbols), MCF-7TAX (diamond symbols) and MCF-7DOX (triangular symbols) cells. After one-day growth, the cells were left untreated (closed symbols) or treated with 100 nM calphostin C for 2 h with light activation (open symbols). Cells were then washed and the medium replaced with medium containing 2 μM of doxorubicin (A) or [^3H]-paclitaxel (B). The cells were then trypsinized and drug accumulation measured by flow cytometry (A) or liquid scintillation counting (B) at indicated time points. The figures are representative of three independent experiments.

MCF-7DOX cells [3] = experiment: Drug uptake, MCF-7DOX; assay type: cell-based, human; conditions: 2 μM doxorubicin or [3H]-paclitaxel
Protocol: as §1

MCF-7 cells [4] = experiment: Microscopic cell morphology (bright field, AO/EB, PI), MCF-7; assay type: cell-based, human; conditions: 10 nM paclitaxel, 24 hours, PI staining
Protocol: (§2) For microscopic observation, cells were seeded onto standard glass coverslips in 10 cm tissue culture plates with 10 ml of H21 medium and grown for 2 days until 40-50% confluence was obtained. After treatment with paclitaxel, doxorubicin or calphostin C, the cells on the glass coverslips were washed twice with PBS (2.7 mM KCl, 1.0 mM KH2PO4, 137 mM NaCl, 10 mM Na2HPO4, pH 7.4) and stained with acridine orange/ethidium bromide (each at 4 μg/ml in PBS) for 10 min at 37° C.. The coverslips were then washed three times in PBS and mounted onto standard glass slides for morphological evaluation. For propidium iodide (PI) staining, the cells on coverslips were washed twice with PBS and fixed in methanol (cooled to −20° C.) for 20 min. Thirty μl of propidium iodide (PI) staining solution (100 μg/ml PI, 0.1% sodium citrate, 100 μg/ml RNase A and 0.3% Nonidet P-40) were then applied to the coverslips for 5 min. […] The cells were then examined using a Zeiss Axiovert 100 inverted fluorescence microscope. […] For each sample, the number of dead cells was determined by visualization after ethidium bromide staining, whereby only dead cells which have lost membrane integrity allow entry of cell-impermeable ethidium bromide into cells to complex with DNA and induce bright red fluorescence. […] The images were recorded and overlayed using Northern Eclipse software (Empix Imaging Inc., Mississauga, ON).

[5] = system: MCF-7TAX (paclitaxel-resistant) cells; experiment: Clonogenic assay, MCF-7TAX cells; assay type: cell-based, human
Protocol: (§3) The breast cancer cell line MCF-7 (lot HTB-22) was obtained from the American […] (ATCC) and maintained in Dulbecco's H21 medium (MEM) supplemented with 10% Fetal Bovine Serum (FBS) (HyClone, Logan, Utah) in a humidified atmosphere containing 5% CO2 at 37° C. To establish drug resistant cell lines, MCF-7 cells were grown in the presence of either paclitaxel or doxorubicin, beginning at a concentration 1000-fold below that required to kill 50% of the cells (the IC50). The drug concentration was increased 3-fold every two weeks (two passages), with an aliquot of the cells removed for storage in liquid nitrogen before each increase in concentration. Dose escalation continued until all cells died, after which the cells able to tolerate the highest concentration of drug were thawed for subsequent study. In this way, paclitaxel-resistant (MCF-7TAX) and doxorubicin-resistant (MCF-7DOX) cell lines were established. The IC50 for each drug was determined using a clonogenic assay as outlined below. The drug resistant cells were kept in culture in the presence of the maximally tolerated drug dose. Before each experiment, the cell lines were grown for two days in the absence of drug after which fresh medium containing either calphostin C (Sigma Laboratories, Oakville, ON), doxorubicin (Adriamycin PFS®, USP, Mississauga, ON) or paclitaxel (Taxol, Bristol-Myers Squibb, Montreal, QC) was added at the concentrations indicated.
(§4) The sensitivity of MCF-7, MCF-7TAX and MCF-7DOX cells to calphostin C, paclitaxel or doxorubicin was determined using a clonogenic assay. Briefly, 2.5×10^5 cells were seeded into 25 cm^2 tissue culture flasks in Dulbecco's H21 medium supplemented with 10% FBS. The cells were allowed to grow overnight, after which the medium was removed and replaced with medium containing varying concentrations of paclitaxel, doxorubicin, or calphostin C (after 2 hours of light exposure to activate the molecule). […] The colonies present in 5 randomly selected fields were then counted by visual inspection. […]

MCF-7TAX cells [6] = experiment: Microscopic cell morphology, MCF-7TAX; assay type: cell-based, human; conditions: 10 nM paclitaxel, 24 h
Protocol: as §2

[7] = system: MCF-7DOX (doxorubicin-resistant) cells; experiment: Clonogenic assay, MCF-7DOX cells; assay type: cell-based, human; conditions: for fold resistance / lower sensitivity compared to MCF-7 cells: MCF-7DOX vs MCF-7
Protocol: as §3
The sensitivity of MCF-7, MCF-7TAX and MCF-7DOX cells to calphostin C, paclitaxel or doxorubicin was determined using a clonogenic assay. Briefly, 2.5×10^5 cells were seeded into 25 cm^2 tissue culture flasks in Dulbecco's H21 medium supplemented with 10% FBS. The cells were allowed to grow overnight, after which the medium was removed and replaced with medium containing varying concentrations of paclitaxel, doxorubicin, or calphostin C (after 2 hours of light exposure to activate the molecule). After 24 hours, the medium (including any floating cells) was transferred to 14 ml screw-capped tubes and centrifuged at 1000 rpm for 10 min. The adherent cells were then released from their flasks by trypsin treatment and suspended in 10 ml of H21 medium. The cell suspension was transferred to the previous tube and all cells harvested by centrifugation. The cell pellet was washed one more time with drug-free medium and resuspended in 300 μl of normal growth medium containing FBS. The cells were then added to 2.7 ml of a methylcellulose solution. The methylcellulose medium was prepared by combining 70 ml of a 2.6% (w/v) methylcellulose solution [Shin-Etsu Chemical Co., Tokyo, Japan] in Iscove's medium (Princess Margaret Hospital, Toronto, ON) with 30 ml of FBS. Three ml syringes equipped with a 16-gauge needle were used for transferring the viscous medium. The mixture was vigorously vortexed for 10 s to ensure an even distribution of cells within the viscous medium. The vortexed samples were then allowed to sit for 30 min to remove air bubbles. A 1.2 ml aliquot of the cell suspension was then transferred to a 6-well plate and the cells allowed to grow until colonies of >50 cells were visible by light microscopy for the various cell lines in the absence of drug. The colonies present in 5 randomly selected fields were then counted by visual inspection.
Calphostin C (Sigma Laboratories, Oakville, ON) was prepared as a 100 μM stock solution in dimethylsulfoxide (Sigma Laboratories, Oakville, ON) and stored at −70° C. in 100 μl aliquots. […]

MCF-7 cells [8] = experiment: Clonogenic assay, MCF-7 cells; assay type: cell-based, human; conditions: Homo sapiens, MCF7, 24 h drug, calphostin C light-activated 2 h, read-out: IC50 (concentration required to kill or inhibit the growth of 50% of cells)
Protocol: as §3, §4

[9] = system: caspase-8 and PARP in Jurkat cells; experiment: Immunoblotting of apoptosis markers, Jurkat (positive control); assay type: cell-based; conditions: 3 μg/ml etoposide, 24 hours
Protocol: FIG. 9 illustrates the effect of calphostin C on caspase 8 cleavage, PARP cleavage, and cytochrome C release in MCF-7, MCF-7FDOX, and MCF-7TAX cells. The MCF-7, MCF-7FDOX, and MCF-7TAX cell lines were incubated with (+) or without (−) 100 nM calphostin C, after which whole cell extracts were monitored for caspase-8 and cytochrome C levels by immunoblotting as described in Materials and Methods. A similar experiment was also performed, except that mitochondrial (M) and cytosolic (C) fractions were prepared as described in Materials and Methods to monitor by immunoblotting the release of cytochrome C from mitochondria into the cytosol in response to calphostin C. As positive controls, similar experiments were conducted using Jurkat cells, with (+) or without (−) the addition of 3 μg/ml etoposide for 24 hours.
Extraction of proteins from whole cells was performed using RIPA buffer (1% NP40, 0.5% sodium deoxycholate, 0.1% SDS, 1 Complete™ protease inhibitor tablet in 50 ml of PBS). Prior to use, the RIPA buffer (50 ml) was supplemented with 500 μl each of both 100 mM sodium orthovanadate and 10 mg/ml phenylmethylsulfonyl fluoride. Cultured cells were grown as a monolayer and allowed to reach 70-90% confluence in 10 cm tissue culture plates. […]

MCF-7DOX cells [10] = experiment: Microscopic cell morphology, MCF-7DOX; assay type: cell-based, human; conditions: 2 μM doxorubicin, 24 h
Protocol: as §2

Compound | time of large increase in number of cells with sub-G1 DNA content after drug administration (MCF-7 cells [1]) | drug uptake compared to MCF-7 cells (MCF-7TAX cells [2]) | drug uptake compared to MCF-7 cells (MCF-7DOX cells [3]) | percentage of adherent cells multinucleated (MCF-7 cells [4]) | pIC50 ([5]; Homo sapiens, MCF-7TAX cells, 24 h drug, calphostin C light-activated 2 h) | fold higher IC50 than for MCF-7 cells ([5]; MCF-7TAX vs MCF-7) [fold] | change in morphology over untreated cells (MCF-7TAX cells [6]) | fold resistance / lower sensitivity compared to MCF-7 cells [7] | pIC50 (MCF-7 cells [8]) | caspase-8 and PARP cleavage [9] | pIC50 ([7]; Homo sapiens, MCF7-DOX, MCF-7DOX cells, 24 h drug, calphostin C light-activated 2 h) | change in morphology over untreated cells (MCF-7DOX cells [10])
CC(=O)O[C@H]1C(=O)[C@@]2(C)[C@H]([C@H](OC(=O)c3ccccc3)[C@]3(O)C[C@H](OC(=O)[C@H](O)[C@@H](NC(=O)c4ccccc4)c4ccccc4)C(C)=C1C3(C)C)[C@]1(OC(C)=O)CO[C@@H]1C[C@@H]2O [paclitaxel] | approximately 24 hours | dramatically lower | dramatically lower | over 60% | 7.57 | 54 | no change in morphology | approximately 4000 fold | 9.30 | – | – | –
COc1cc([C@@H]2c3cc4c(cc3[C@@H](O[C@@H]3O[C@@H]5CO[C@@H](C)O[C@H]5[C@H](O)[C@H]3O)[C@H]3COC(=O)[C@H]23)OCO4)cc(OC)c1O [etoposide] | – | – | – | – | – | – | – | – | – | could induce caspase-8 and PARP cleavage | – | –
COc1cccc2c1C(=O)c1c(O)c3c(c(O)c1C2=O)C[C@@](O)(C(=O)CO)C[C@@H]3O[C@H]1C[C@H](N)[C@H](O)[C@H](C)O1 [doxorubicin] | approximately 24 hours | dramatically lower | dramatically lower | – | – | – | – | 60 fold | 8.00 | – | 6.22 | no change in morphology
